Assays:
Dravet syndrome patients [1] = conditions: cited from earlier work
[2] = molecular target: serotonin 5-HT2B receptor (Homo sapiens, UniProt P41595); conditions: cited from earlier work
[3] = molecular target: T1, serotonin 5-HT2C receptor (Homo sapiens, UniProt P28335); conditions: cited from earlier work
T1 sequence (P28335 33-458): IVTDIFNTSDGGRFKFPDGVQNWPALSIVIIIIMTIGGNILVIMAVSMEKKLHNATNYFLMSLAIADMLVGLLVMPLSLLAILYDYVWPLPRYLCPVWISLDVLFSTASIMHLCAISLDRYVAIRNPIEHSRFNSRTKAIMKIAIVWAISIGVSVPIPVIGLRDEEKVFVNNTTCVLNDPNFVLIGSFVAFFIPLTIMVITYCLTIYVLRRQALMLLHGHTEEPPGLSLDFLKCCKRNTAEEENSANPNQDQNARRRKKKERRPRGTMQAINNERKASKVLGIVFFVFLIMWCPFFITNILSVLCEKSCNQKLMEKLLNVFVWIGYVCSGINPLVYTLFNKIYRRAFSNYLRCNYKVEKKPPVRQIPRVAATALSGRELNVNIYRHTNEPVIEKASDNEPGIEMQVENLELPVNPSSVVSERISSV

[4] = molecular target: serotonin 5-HT2A receptor (Homo sapiens, UniProt P28223); conditions: cited from earlier work
Sequence of serotonin 5-HT2A receptor (P28223 whole entry): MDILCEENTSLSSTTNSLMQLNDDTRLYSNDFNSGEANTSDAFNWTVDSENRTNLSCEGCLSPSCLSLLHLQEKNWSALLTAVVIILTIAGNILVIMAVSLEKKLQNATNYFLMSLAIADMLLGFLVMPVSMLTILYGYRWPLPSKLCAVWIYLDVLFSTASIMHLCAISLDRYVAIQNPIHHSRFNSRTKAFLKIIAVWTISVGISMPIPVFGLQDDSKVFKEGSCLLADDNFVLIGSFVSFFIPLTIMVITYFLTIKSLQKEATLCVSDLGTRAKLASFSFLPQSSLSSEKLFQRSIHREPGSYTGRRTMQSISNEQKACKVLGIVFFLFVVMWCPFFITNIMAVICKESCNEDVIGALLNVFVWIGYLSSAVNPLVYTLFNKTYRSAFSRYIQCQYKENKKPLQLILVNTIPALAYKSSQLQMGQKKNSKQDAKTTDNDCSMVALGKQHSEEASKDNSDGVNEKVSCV

[5] = tested on: children and young adults with Dravet syndrome; assay: Study 1: Clinical Global Impression of Improvement (CGI-I); assay type: in vivo, Human; conditions: either 0.2 or 0.8 mg/kg/day dose
Procedure: CGI-S and CGI-I ratings were made by clinical investigators and parent/caregivers in a series of phase III trials of fenfluramine. CGI changes were measured in two randomized, controlled trials with results reported herein. Study 1 was conducted as described in Example 1 and CGI ratings were made according to a set schedule of visits made to the clinic. Tables of results and bar graphs of the statistical analyses of CGI ratings for Study 1 at visit twelve (day 113) are provided in FIGS. 1-4. […] Similar results were obtained with investigator CGI-I rating.
In Study 1, subjects were assessed using Clinical Global Impression (CGI), allowing the parent/caregiver and principal investigator to assess improvement, as well as the Quality of Life in Childhood Epilepsy (QOLCE) Scale and the Pediatric Quality of Life Inventory (PedsQL) to measure changes in the quality of life of the subject. Comparisons between treatment groups were made using Wilcoxon rank sum tests.
(§1) The CGI scale measures the change in the subject's clinical status from a specific point in time, i.e., the Baseline Period (and also referred to as the CGI-S, an initial ranking of severity). The CGI rating scale permits a global evaluation of the subject's improvement over time.

[6] = tested on: subjects with Dravet syndrome; assay: Study 1503: open-label long-term extension, CGI-I at baseline and final visit; assay type: in vivo, Human; conditions: OLE Final Visit
Procedure: Study 1503 was an open-label, long-term safety study of ZX008 in subjects with Dravet syndrome who successfully completed 14 weeks of treatment in 1501, 1502, or 1504 Cohorts 1 and 2. […] CGI-S(baseline scores) were determined at entry into 1503 (i.e., after completing a blinded 16 week trial) and then again at each patient's final visit. FIGS. 7 and 8, and Tables 3 and 4 present numbers of patients having each of the 7 ratings and statistical calculations of improvements.
as §1

Dravet syndrome patients [7] = conditions: Dravet syndrome (Devinsky, NEJM 2017); cited from earlier work

Sequence of serotonin 5-HT2B receptor (P41595 whole entry): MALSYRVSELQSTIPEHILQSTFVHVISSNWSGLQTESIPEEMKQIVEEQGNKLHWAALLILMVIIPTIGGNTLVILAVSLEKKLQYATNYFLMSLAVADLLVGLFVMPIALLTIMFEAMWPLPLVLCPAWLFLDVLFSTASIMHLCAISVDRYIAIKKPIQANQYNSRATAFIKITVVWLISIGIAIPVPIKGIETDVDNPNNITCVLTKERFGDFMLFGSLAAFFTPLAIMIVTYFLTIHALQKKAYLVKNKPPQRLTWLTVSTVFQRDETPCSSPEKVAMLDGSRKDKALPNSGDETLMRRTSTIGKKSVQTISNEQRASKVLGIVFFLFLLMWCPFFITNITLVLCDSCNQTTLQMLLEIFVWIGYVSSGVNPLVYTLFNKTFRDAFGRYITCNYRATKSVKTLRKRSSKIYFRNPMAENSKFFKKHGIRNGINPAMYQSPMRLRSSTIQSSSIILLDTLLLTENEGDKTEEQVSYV

Question: Which “Reduction of tonic-clonic seizure rate” value (Dravet syndrome patients [1]) does the source give for CC(C)(C)C(O)/C=C/c1ccc2c(c1)OCO2 (stereo not shown) [Stiripentol, stiripentol] here?
Answer: Its value is 70%.

Question: Which results are given for CC(N)Cc1cccc(C(F)(F)F)c1 (stereo not shown) [norfenfluramine]?
Answer: Binds to and activates serotonin 5-HT2B receptor, affinity [2]: high affinity; Binds to and activates serotonin 5-HT2C receptor, affinity [3]: high affinity; Binds to and activates serotonin 5-HT2A receptor, affinity [4]: moderate affinity

Question: With CCNC(C)Cc1cccc(C(F)(F)F)c1 (racemic) [fenfluramine, (RS)—N-ethyl-1-[3-(trifluoromethyl)phenyl]propan-2-amine, reference compound] as the molecule, how does the “Parents/caregivers rating their children 'very much improved' or 'much improved' (CGI-I) vs placebo group” value [5] read?
Answer: The value was “Significantly more”.

Question: What about the “CGI-I investigator, Improved (1, 2, 3), %” value [6] of the same molecule?
Answer: Its value is 85.4%.

Question: And the “CGI-I investigator, Much/very much improved (1, 2), %” value [6]?
Answer: Its value is 64.2%.

Question: And the “CGI-I parent/caregiver, Improved (1, 2, 3), %” value [6]?
Answer: Its value is 82.3%.

Question: What about the “CGI-I parent/caregiver, Much/very much improved (1, 2), %” value [6] of the same molecule?
Answer: The value was 62.5%.

Question: Which “Cognitive function, active treatment groups vs placebo” value (Dravet syndrome patients [7]) does the source give for C=C(C)[C@@H]1CCC(C)=C[C@H]1c1c(O)cc(CCCCC)cc1O [cannabidiol] here?
Answer: Its value is “did not achieve significant difference from placebo”.

Reference: patent US20200306210A1 (ZOGENIX INTERNATIONAL LIMITED, priority 2017, published 2020)
